These results are taken from ChEMBL document CHEMBL1201862, “PubChem BioAssay data set” (2004).

The structures appear in SMILES notation. Calls of active or inactive are those of the source.

One experiment deals with Steroidogenic factor 1 (Homo sapiens, UniProt Q13285). The experiment can be described thus: Counterscreen for inverse agonists of the liver receptor homolog-1 (LRH-1; NR5A2): Luminescence-based cell-based high throughput dose response assay to identify inverse agonists of the Steroidogenic Factor 1 Nuclear Receptor (SF1; NR5A1). The class given is functional.
Experiment [1] concerns Vero. Nature of the experiment: cells. The experiment is classed as functional. Particulars: Chlorocebus sabaeus.
Experiment [2] can be described thus: A Cell Based Secondary Assay To Explore Cytotoxicity of Compounds that Sensitize Mycobacterium Tuberculosis to Beta-Lactam Antibiotics. The experiment is classed as functional.
A short description of experiment [3]: StAR promoter reporter inhibition counter-screen, dose response, counter-screen for LRH-1 inverse agonist project, cell-based, luminescence, luciferase reporter (AID 651969). The experiment is classed as functional. A general note: The purpose of a counterscreen is to sort out artefacts and off-target activity.
Experiment [4] concerns the target Nuclear receptor subfamily 5 group A member 2 (Homo sapiens, UniProt O00482). The class given is functional, cell-based.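 Further: HEK293T cells transfected with LRH-1 and a StAR promoter luciferase reporter; potency for inhibitors that lower LRH-1 driven reporter light.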
Experiment [5] addresses T1, Beta-galactosidase (Escherichia coli, UniProt Q8VNN2). The experiment is classed as functional.
The target in another experiment is Mu-type opioid receptor (Homo sapiens, UniProt P35372). Nature of the experiment: HTS Image-Based Screen for Agonists of the MOR Receptor. [Related pubchem assays (depositor defined):AID1777, AID1785, AID1786, AID2133]. The class given is functional.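 Further: imaging of beta-arrestin GFP recruitment into spots after receptor activation.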
Experiment [6] concerns the target Glucose-6-phosphate 1-dehydrogenase (Homo sapiens, UniProt P11413). Nature of the experiment: human G6PD enzyme inhibitors, dose response, selectivity assay for P. falciparum G6PD inhibitor project, biochemical, fluorescence (AID 504792). The experiment is classed as functional.
Experiment [7] concerns the target T2, Beta Lactamase (Pseudomonas aeruginosa, UniProt Q932Y6). The experiment can be described thus: beta-lactamase reporter inhibitor potency, dose response, artefact control for NOD2-RIPK2 interaction inhibitor project, BLA reporter cells, FRET fluorescence (AID 651552). The class given is functional, cell-based.
The target in experiment [8] is T3, Type-1 angiotensin II receptor (Homo sapiens, UniProt P30556).
T3 sequence (P30556 whole entry): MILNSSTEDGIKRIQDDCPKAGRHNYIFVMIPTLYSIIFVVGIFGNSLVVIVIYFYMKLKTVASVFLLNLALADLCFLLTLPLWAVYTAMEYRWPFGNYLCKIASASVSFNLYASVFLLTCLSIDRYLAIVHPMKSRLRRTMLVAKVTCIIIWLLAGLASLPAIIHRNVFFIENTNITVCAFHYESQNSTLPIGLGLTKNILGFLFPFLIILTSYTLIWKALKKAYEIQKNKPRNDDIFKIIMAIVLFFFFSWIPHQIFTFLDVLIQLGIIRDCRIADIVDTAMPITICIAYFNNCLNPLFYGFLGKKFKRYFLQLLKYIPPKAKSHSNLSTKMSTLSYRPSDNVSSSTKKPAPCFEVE
Nature of the experiment: AT1 receptor antagonists, dose response, selectivity assay for APJ receptor antagonist project, cell-based, uHTS hits (AID 463214).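 Further: antagonist potency against angiotensin II stimulated AT1 response.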 The experiment is classed as functional.

Experiment [9] has as its target T4, Replicative DNA helicase DnaB (Mycobacterium tuberculosis, UniProt P9WMR3).
T4 sequence (P9WMR3 whole entry): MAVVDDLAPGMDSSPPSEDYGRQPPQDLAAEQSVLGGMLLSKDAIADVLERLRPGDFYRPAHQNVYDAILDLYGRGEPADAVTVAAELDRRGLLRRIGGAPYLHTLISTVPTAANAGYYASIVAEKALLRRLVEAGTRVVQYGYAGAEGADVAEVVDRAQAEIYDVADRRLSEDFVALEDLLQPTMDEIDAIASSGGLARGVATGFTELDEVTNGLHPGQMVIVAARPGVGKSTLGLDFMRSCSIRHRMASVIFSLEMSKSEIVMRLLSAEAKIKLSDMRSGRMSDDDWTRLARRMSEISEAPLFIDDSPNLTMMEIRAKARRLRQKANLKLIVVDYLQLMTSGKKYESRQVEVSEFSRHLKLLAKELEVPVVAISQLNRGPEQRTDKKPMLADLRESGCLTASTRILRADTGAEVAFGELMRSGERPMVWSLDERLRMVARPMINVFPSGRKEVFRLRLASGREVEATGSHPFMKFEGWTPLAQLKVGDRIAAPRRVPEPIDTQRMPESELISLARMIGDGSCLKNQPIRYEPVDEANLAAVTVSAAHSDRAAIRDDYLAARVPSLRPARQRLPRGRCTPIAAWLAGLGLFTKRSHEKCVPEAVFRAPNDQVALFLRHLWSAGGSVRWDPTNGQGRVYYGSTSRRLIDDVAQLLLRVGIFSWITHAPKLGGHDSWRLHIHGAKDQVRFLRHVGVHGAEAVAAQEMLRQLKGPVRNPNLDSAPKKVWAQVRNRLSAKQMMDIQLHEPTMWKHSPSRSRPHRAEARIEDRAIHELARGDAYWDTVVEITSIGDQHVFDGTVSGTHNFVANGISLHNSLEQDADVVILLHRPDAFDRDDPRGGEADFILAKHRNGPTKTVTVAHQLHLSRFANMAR
The experiment can be described thus: DnaB intein splicing inhibitors, dose response, biochemical, cell-free fluorescence (AID 449749). The class given is functional.

Experiment [10] can be described thus: Fluorescence-based cell-based high throughput dose response assay for inhibitors of the interaction of nucleotide-binding oligomerization domain containing 2 (NOD2) and the receptor-interacting serine-threonine kinase 2 (RIPK2). Particulars: Homo sapiens. The class given is functional.
The target of experiment [11] is T5, Delta-type opioid receptor (Homo sapiens, UniProt P41143). The experiment can be described thus: HTS Image-Based Screen for Agonists of the DOR Receptor. [Related pubchem assays (depositor defined):AID1777, AID1786, AID2133]. The experiment is classed as functional.
The target in experiment [12] is T5, Delta-type opioid receptor. The experiment can be described thus: HTS Image-Based Screen for Antagonists of the DOR Receptor. [Related pubchem assays (depositor defined):AID1777, AID1785, AID1786, AID2133]. The class given is functional.
Another experiment concerns the target T6, Protein RecA (Mycobacterium tuberculosis, UniProt P9WHJ3).
T6 sequence (P9WHJ3 whole entry): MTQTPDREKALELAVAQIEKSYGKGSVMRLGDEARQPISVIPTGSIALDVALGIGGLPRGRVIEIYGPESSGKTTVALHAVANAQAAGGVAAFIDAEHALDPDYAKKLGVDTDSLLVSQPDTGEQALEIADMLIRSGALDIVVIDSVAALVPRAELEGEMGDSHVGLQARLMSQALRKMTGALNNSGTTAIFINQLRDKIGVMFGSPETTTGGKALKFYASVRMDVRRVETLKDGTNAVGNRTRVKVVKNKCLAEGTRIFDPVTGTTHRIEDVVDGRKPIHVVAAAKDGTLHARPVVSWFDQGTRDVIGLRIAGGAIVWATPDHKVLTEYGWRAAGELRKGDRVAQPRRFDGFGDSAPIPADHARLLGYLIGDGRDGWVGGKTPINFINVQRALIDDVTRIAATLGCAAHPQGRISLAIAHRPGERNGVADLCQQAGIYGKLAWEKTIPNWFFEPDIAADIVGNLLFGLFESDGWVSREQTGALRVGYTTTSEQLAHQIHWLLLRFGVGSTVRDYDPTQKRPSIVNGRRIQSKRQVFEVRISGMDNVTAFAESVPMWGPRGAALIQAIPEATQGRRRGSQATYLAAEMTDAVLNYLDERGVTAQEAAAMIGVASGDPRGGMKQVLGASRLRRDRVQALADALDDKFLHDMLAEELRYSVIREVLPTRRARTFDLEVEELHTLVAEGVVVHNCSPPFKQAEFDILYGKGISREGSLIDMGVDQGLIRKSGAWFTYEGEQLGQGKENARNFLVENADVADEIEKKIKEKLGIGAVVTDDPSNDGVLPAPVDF
The experiment can be described thus: Fluorescence Cell-Free Homogeneous Dose Retest to Identify Inhibitors of RecA-Intein Splicing Activity. [Related pubchem assays (depositor defined):AID2097, AID2223, AID489010, AID492950]. The class given is functional.

In the next experiment the test system is CHO. Nature of the experiment: cytotoxicity in TLR9-MyD88 CHO cells, dose response, cytotoxicity control for TLR9-MyD88 binding inhibitor project, cell-based, luminescence (AID 588339).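 Further: CHO cells stably coexpressing TLR9 and MyD88 fusions from primary screen; compound exposure lasted 48 hours before viability readout.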 The class given is functional, hamster. To be noted: Cricetulus griseus.
The next experiment has as its target Genome polyprotein (dengue virus type 2, UniProt P29990). Nature of the experiment: Dengue-2 NS5 methyltransferase inhibitors, primary screen, biochemical, confirmation dose response (AID 588689). The class given is functional.
The target of experiment [13] is T1, Beta-galactosidase. The experiment can be described thus: PubChem AID 485352. The experiment is classed as functional.
The target of experiment [14] is T7, Kappa-type opioid receptor (Homo sapiens, UniProt P41145). The experiment is classed as functional.
Experiment [15] has as its system Vero. Nature of the experiment: Vero cell cytotoxicity, cytotoxicity control for flavivirus capping enzyme inhibitors (AID 588742). The class given is functional. To be noted: Chlorocebus sabaeus.
Experiment [16] addresses T7, Kappa-type opioid receptor. The experiment is classed as functional. This is another data set of the same source.
Experiment [17] deals with T2, Beta Lactamase. Nature of the experiment: beta-lactamase reporter inhibitor potency, dose response, artefact control for TLR9-MyD88 binding inhibitor project, BLA reporter cells, FRET fluorescence (AID 588341).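 Further: cell based assay in CHO-K1 cells stably expressing beta-lactamase.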 The experiment is classed as cell-based.

T7 sequence (P41145 whole entry): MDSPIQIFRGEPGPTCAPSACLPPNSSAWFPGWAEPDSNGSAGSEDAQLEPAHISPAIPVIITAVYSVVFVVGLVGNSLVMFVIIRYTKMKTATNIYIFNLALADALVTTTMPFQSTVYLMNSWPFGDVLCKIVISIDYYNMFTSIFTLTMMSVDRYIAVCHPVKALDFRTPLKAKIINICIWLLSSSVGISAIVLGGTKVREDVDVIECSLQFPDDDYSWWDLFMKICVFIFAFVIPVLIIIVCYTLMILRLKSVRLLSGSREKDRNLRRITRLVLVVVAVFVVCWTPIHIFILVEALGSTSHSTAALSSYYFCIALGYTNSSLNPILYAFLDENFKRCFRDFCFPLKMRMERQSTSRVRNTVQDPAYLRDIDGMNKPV
T2 sequence (Q932Y6 whole entry): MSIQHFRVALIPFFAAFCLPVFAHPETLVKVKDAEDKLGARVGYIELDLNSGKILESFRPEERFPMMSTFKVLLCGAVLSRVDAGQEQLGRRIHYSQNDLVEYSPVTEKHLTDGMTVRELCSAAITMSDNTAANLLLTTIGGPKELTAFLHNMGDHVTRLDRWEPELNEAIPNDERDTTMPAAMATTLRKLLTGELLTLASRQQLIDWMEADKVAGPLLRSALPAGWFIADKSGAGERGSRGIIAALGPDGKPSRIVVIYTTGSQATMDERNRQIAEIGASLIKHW
T1 sequence (Q8VNN2 whole entry): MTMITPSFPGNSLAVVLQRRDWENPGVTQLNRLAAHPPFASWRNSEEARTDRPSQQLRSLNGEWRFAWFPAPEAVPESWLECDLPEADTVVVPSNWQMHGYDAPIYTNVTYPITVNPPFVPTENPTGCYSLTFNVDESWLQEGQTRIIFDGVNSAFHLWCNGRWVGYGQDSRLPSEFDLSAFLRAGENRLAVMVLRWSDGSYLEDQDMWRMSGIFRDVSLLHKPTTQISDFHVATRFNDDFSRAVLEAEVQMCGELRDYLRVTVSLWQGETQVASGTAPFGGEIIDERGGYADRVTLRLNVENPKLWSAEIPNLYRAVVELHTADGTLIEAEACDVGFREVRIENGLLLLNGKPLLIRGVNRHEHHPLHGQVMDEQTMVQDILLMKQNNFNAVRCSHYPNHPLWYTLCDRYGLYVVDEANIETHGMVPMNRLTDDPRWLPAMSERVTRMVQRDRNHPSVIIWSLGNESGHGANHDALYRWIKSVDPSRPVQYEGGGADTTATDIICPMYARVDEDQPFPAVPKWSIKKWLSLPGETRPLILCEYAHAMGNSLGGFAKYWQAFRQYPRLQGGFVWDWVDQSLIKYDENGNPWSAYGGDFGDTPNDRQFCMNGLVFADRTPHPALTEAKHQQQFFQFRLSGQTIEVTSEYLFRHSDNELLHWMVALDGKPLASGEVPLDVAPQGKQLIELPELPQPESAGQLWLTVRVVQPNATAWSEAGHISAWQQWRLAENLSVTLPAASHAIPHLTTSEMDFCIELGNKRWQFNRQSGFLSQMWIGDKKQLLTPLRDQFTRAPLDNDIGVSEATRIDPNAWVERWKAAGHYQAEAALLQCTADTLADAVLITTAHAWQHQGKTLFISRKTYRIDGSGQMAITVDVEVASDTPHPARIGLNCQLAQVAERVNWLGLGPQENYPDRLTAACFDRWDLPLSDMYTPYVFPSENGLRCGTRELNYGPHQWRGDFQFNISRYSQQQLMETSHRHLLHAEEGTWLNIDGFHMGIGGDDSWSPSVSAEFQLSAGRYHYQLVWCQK
T5 sequence (P41143 whole entry): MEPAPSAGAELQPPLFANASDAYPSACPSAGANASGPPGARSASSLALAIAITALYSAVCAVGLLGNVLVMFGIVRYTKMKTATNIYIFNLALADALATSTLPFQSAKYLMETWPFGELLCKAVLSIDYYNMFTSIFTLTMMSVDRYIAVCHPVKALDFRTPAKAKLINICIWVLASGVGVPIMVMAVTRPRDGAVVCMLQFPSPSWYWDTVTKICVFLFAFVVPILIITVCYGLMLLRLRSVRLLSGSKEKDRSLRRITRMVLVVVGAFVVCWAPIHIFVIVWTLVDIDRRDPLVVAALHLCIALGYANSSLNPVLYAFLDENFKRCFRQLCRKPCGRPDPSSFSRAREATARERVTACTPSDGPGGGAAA
Nuclear receptor subfamily 5 group A member 2, sequence (O00482 whole entry): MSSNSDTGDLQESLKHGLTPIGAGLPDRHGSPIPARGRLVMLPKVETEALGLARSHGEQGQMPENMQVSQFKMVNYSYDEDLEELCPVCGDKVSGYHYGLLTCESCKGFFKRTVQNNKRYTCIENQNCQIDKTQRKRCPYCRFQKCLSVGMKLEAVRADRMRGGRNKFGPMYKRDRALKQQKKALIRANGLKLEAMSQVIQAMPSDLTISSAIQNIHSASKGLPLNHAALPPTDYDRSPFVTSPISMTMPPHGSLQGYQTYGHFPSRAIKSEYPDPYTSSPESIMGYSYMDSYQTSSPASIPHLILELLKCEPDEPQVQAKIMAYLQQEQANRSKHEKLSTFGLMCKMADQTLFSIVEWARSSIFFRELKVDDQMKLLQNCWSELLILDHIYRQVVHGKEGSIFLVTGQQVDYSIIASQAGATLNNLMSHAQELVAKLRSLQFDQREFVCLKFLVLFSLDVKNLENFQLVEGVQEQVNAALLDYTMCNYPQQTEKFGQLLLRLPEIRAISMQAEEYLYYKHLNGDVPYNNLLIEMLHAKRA
Genome polyprotein, sequence (P29990 2492-3391 limits assumed): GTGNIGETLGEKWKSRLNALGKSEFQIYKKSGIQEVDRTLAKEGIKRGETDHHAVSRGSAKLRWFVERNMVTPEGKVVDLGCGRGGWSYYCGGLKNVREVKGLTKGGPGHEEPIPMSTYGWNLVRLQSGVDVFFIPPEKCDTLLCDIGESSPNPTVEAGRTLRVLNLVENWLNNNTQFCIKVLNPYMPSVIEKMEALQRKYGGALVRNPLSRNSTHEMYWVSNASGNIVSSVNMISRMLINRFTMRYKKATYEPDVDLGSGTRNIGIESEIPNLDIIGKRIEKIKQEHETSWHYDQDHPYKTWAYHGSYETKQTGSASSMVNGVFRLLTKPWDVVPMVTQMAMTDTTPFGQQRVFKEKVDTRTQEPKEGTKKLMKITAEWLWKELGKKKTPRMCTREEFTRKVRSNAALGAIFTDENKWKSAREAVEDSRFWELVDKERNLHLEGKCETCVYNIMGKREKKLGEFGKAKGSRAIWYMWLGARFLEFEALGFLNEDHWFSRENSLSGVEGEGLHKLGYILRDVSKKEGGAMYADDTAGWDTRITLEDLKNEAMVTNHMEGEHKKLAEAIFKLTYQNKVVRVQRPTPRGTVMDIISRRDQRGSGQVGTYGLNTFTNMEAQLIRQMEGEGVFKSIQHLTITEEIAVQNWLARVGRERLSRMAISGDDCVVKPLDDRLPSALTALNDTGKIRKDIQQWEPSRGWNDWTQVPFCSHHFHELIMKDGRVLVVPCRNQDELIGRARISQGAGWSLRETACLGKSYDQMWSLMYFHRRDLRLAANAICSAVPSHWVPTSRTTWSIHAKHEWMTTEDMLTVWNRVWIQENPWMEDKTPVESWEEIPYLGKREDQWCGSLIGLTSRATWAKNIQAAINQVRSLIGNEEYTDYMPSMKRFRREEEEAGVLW
Glucose-6-phosphate 1-dehydrogenase, sequence (P11413 whole entry): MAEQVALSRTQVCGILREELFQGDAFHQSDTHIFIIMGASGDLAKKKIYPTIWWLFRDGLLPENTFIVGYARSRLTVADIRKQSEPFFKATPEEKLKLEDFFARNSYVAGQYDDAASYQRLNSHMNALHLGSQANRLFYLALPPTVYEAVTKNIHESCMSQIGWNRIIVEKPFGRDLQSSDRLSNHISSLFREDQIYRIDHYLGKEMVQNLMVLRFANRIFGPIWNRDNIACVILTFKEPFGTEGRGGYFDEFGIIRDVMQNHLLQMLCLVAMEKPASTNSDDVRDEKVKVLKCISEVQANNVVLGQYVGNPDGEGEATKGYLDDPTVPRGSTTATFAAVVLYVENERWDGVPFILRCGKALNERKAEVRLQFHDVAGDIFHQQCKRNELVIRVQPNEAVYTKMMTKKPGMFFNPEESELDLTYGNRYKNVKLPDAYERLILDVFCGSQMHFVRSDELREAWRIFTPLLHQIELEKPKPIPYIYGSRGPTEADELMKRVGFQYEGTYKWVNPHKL
Mu-type opioid receptor, sequence (P35372 whole entry): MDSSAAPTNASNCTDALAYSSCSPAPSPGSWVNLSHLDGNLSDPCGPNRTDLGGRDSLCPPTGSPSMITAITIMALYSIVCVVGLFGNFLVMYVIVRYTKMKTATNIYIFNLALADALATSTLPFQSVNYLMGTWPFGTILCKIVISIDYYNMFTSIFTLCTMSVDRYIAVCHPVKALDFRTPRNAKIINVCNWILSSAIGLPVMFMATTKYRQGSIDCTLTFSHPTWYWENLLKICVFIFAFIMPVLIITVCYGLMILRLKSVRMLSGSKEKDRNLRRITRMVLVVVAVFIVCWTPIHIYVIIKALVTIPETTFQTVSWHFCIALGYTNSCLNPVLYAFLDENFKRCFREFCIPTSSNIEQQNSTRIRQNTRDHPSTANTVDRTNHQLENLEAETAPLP
Steroidogenic factor 1, sequence (Q13285 whole entry): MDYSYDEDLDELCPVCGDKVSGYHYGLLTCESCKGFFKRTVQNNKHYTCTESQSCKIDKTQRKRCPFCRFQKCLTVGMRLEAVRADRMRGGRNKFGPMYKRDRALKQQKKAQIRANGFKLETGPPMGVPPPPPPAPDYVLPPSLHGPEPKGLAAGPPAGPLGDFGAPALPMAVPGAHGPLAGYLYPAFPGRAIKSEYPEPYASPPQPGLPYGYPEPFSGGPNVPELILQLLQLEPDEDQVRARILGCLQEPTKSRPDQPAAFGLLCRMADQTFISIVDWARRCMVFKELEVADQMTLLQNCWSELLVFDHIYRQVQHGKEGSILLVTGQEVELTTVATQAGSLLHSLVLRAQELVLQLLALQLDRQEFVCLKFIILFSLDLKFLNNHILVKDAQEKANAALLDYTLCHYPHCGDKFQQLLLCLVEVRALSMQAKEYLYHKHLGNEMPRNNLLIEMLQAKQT

As usually defined, the IC50 is the point on the concentration scale where inhibition reaches its midpoint. By CC50 is commonly meant the concentration that lowers cell viability or growth by half. On to `Cc1onc(NC(=O)c2ccc([N+](=O)[O-])o2)c1Br`, for which the IC50 on Steroidogenic factor 1 is 369 nM (active); in [3] it was 35.9 µM (inactive); in experiment [4], 1.33 µM (active). Also, the cytotoxic concentration (CC50) with Vero [1] is 20.8 µM (active); in experiment [2], 8.19 µM (active).

Broadly, the EC50 is the concentration that produces a half-maximal response. The AC50 is the concentration at which the activity in the assay is half-maximal. As to `CCC(=O)OCCNc1cc(Sc2nc3ccccc3s2)c2nonc2c1[N+](=O)[O-]`, the EC50 was > 31.5 µM (inactive) on Beta-galactosidase [5]; > 32 µM (inactive) on Mu-type opioid receptor; < 500 nM (active) in [11]; 572 nM (active) at Protein RecA; > 40 µM (inactive) at Beta-galactosidase [13]. Moreover, the IC50 is > 80 µM (inactive) in experiment [6]; 12.2 µM (inactive) at Beta Lactamase [7]; 3.51 µM (active) in [8]; 1.53 µM (active) in experiment [10]; > 32 µM (inactive) in experiment [12]; 3.25 µM (active) with CHO. For the same compound, the IC50 at Genome polyprotein is 29.6 µM (active); in experiment [14], 8.16 µM (active); in [16], greater than 32 µM; at Beta Lactamase [17] it was 10.5 µM (inactive). Besides, in [9], the AC50 is 2.36 µM (active). In addition, the CC50 in the experiment with Vero [15] is 18.5 µM (active).
